Experiments:
[1] = target: T1, Prostaglandin E2 receptor EP3 subtype (Homo sapiens, UniProt P43115); assay: Antagonist activity at human EP3c receptor expressed in human U2OS cells assessed as inhibition of PGE2-induced calcium mobilization after 24 hrs by FLIPR assay; type: functional, cell-based
T1 sequence (P43115 whole entry): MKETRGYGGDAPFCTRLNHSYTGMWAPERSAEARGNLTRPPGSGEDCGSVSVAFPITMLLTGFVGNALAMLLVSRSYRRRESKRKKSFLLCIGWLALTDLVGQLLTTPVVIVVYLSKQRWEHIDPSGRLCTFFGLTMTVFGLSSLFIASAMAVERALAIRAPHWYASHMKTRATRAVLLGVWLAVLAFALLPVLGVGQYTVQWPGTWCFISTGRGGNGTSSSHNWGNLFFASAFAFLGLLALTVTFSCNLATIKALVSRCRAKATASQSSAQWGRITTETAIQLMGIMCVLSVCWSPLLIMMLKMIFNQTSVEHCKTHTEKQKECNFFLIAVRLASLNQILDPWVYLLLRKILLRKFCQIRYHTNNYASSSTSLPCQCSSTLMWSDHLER

[2] = target: T2, Prostaglandin E2 receptor EP1 subtype (Homo sapiens, UniProt P34995); assay: Antagonist activity at EP1 receptor in human U2OS cells expressing Gqi5 assessed as inhibition of PGE2-induced response after 24 hrs by FLIPR assay; type: functional, cell-based
T2 sequence (P34995 whole entry): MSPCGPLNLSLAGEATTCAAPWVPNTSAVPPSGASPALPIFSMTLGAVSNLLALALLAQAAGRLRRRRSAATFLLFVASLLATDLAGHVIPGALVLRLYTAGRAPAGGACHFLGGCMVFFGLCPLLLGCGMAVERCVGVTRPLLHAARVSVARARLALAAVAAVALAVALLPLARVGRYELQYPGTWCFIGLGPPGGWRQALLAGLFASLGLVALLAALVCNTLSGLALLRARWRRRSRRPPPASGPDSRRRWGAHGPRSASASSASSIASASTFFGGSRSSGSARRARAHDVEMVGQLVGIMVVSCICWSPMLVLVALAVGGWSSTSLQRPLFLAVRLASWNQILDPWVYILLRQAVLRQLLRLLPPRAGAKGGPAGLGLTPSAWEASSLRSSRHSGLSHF

Rattus norvegicus = assay: Dose-normalized AUC in Sprague-Dawley rat at 2 mg/kg, po; type: ADME, organism-based; design: dose 2 mg/kg, route oral; details: in vivo
[3] = target: T3, Prostaglandin E2 receptor EP3 subtype (Rattus norvegicus, UniProt P34980); assay: Antagonist activity at rat EP3 receptor expressed in human U2OS cells co-expressing Gqi5 assessed as inhibition of PGE2-induced response after 24 hrs by FLIPR assay; type: functional, cell-based
T3 sequence (P34980 whole entry): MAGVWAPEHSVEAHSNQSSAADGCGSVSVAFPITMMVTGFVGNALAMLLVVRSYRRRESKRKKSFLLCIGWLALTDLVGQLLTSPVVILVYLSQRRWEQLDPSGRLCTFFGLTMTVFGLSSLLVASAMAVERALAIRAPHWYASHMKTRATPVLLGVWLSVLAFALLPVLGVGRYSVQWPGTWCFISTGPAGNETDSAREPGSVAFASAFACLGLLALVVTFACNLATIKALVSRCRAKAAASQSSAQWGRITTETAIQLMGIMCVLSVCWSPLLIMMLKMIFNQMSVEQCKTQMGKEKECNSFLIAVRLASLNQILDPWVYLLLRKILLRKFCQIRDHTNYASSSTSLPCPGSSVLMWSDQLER

[4] = Half life in Sprague-Dawley rat at 1 mg/kg, iv; type: ADME, organism-based; design: dose 1 mg/kg, route intravenous; details: in vivo
[5] = Oral bioavailability in Sprague-Dawley rat at 2 mg/kg; type: ADME, organism-based; details: in vivo
[6] = Clearance in Sprague-Dawley rat at 1 mg/kg, iv and 2 mg/kg, po; type: ADME, organism-based; details: in vivo
[7] = Drug metabolism in human liver S9 fraction assessed as NADPH-dependent glutathione conjugate level at 10 uM after 30 mins by LC-MS/MS analysis; type: ADME, subcellular; details: s9, 0.5 h
[8] = Drug metabolism in rat liver S9 fraction assessed as glutathione conjugate level at 10 uM after 30 mins by HPLC in absence of NADPH; type: ADME, subcellular; details: s9, 0.5 h
[9] = Drug metabolism in rat liver S9 fraction assessed as NADPH-dependent glutathione conjugate level at 10 uM after 30 mins by LC-MS/MS analysis; type: ADME, subcellular; details: s9, 0.5 h
[10] = Drug metabolism in human liver S9 fraction assessed as glutathione conjugate level at 10 uM after 30 mins by HPLC in absence of NADPH; type: ADME, subcellular; details: s9, 0.5 h

| Ki [1] | Ki [2] | AUC/dose (Rattus norvegicus) | Ki [3] | half-life [4] | bioavailability [5] | clearance [6] | Drug metabolism [7] | Drug metabolism [8] | Drug metabolism [9] | Drug metabolism [10] | SMILES |
| --- | --- | --- | --- | --- | --- | --- | --- | --- | --- | --- | --- |
| 200 nM | > 5.01 µM | 0.17 µg·h/mL/mg/kg | 316 nM | 306 min | 32% | 31 mL/min/kg |  |  |  |  | O=C1NC(=O)C(c2ccc(-c3ccc4ccccc4c3)[nH]c2=O)O1 (configuration not stated) |
| 6.31 nM |  | 3 µg·h/mL/mg/kg | 7.94 nM | 252 min | 80% | 4.5 mL/min/kg | Not Active | Not Active | Not Active | Not Active | CC(C)C1(c2ccc(-c3ccc4c(ccn4C)c3)[nH]c2=O)OC(=O)NC1=O (configuration not stated) |
| 20 nM |  | 1.8 µg·h/mL/mg/kg | 12.6 nM | 168 min | 68% | 6.3 mL/min/kg | Not Active | Not Active | Not Active | Not Active | Cc1ccc(-c2ccc(C3(C(C)C)OC(=O)NC3=O)c(=O)[nH]2)cc1C (configuration not stated) |

From ChEMBL document CHEMBL2034937, “Novel 3-Oxazolidinedione-6-aryl-pyridinones as Potent, Selective, and Orally Active EP3 Receptor Antagonists” (ACS Med Chem Lett, 2010)
